According to patent US20100286139A1, “AMINO PYRAZOLE COMPOUND” (ELI LILLY AND COMPANY, priority 2008, published 2010):
pIC50: −log10 of the molar value.

Target: T1, JAK3 (Homo sapiens, UniProt P52333)
T1 construct: host or cells: NK-92 natural killer cells, IL-2-stimulated
T1 sequence (P52333 1-1124): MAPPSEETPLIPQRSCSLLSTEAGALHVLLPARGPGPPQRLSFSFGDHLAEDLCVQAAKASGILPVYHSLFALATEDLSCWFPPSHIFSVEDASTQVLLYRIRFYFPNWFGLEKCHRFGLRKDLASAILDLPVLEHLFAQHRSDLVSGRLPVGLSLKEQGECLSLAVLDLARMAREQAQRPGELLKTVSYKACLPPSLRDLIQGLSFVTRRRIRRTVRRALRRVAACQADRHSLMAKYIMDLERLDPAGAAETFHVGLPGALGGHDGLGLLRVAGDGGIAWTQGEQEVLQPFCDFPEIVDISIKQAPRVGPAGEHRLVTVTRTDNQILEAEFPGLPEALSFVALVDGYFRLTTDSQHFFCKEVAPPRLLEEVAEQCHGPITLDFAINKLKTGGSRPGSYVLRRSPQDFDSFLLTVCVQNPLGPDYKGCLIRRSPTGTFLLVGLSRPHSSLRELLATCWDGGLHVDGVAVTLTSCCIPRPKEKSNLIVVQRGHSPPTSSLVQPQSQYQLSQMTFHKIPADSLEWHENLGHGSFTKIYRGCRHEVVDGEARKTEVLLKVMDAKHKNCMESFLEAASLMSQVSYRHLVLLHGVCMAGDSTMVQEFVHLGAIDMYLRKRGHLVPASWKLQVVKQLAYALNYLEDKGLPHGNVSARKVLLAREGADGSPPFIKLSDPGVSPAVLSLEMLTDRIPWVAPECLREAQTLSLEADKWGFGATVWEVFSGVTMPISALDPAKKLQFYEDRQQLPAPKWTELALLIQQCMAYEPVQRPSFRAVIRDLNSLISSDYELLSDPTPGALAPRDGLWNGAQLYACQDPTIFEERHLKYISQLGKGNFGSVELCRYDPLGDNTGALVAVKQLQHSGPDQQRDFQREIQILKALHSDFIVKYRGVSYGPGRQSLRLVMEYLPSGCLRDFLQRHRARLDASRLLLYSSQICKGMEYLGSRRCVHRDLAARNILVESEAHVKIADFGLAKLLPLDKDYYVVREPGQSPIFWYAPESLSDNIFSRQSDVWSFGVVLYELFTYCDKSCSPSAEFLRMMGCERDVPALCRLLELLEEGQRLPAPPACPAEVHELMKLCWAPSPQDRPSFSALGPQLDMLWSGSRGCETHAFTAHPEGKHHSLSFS
Assay: JAK3 IL-2-NK-92/pSTAT5 cell-based assay (Cellomics ArrayScan HCS)
Excerpt: IL-2 activates the JAK3 pathway in natural killer (NK) cells to drive the NK and CD8 lymphocyte proliferation. Therefore, IL-2 stimulated NK92/pSTAT5 cell-based assay enables the evaluation of the JAK3 cellular activity of JAK2 compounds in vitro.
NK-92 (natural killer) cells (ATCC, Manassas, Va.) are maintained in minimum essential medium (MEM) Alpha with 15% fetal bovine serum, 15% Horse Serum and 1× antibiotic/antimycotic (Invitrogen, Carlsbad, Calif.). The medium is supplemented with IL-2 (R&D systems, Minneapolis, Minn.) for a final concentration of 4 ng/mL. Cells are kept at 37° C. with 5% CO2. Cells are starved in serum free medium to remove endogenous growth factors. NK-92 cells are counted and collected to seed 2×10^7 cells per 96-well plate at a density of 2×10^5 cells per well. The cells are rinsed twice with unsupplemented MEM Alpha (MEM Alpha) before suspending cells at a final concentration of 8×10^5 cells/mL in MEM Alpha with 0.6% serum (0.3% FBS, 0.3% horse serum). […]
To perform the assay, serum-starved cells are collected and washed once with unsupplemented RPMI 1640 medium. […] An aliquot of 200 μL of 1 to 10 dilution of Mouse anti-pSTAT5 (pY694) Alexa Fluor 647® in fluorescence activated cell sorting (FACS) buffer is added to the cells. […] Mean fluorescent intensity data are collected and analyzed using Cellomics Arrayscan® VTi. […] The MSR is determined to be 2.06. […]

SMILES: Cc1cc(Nc2cc(CN3CCOCC3)c3nc(C)c(Cc4ccc(Cl)cc4F)n3n2)n[nH]1 [3-(4-Chloro-2-fluorobenzyl)-2-methyl-N-(5-methyl-1H-pyrazol-3-yl)-8-(morpholinomethyl)imidazo[1,2-b]pyridazin-6-amine]
- ratio of JAK3/JAK2 IC50 (JAK3 IL2-NK92-pSTAT5 IC50 over JAK2 EPO-TF1/pSTAT5 IC50): 28.5 fold
- pIC50 (NK-92 cells, IL-2 0.5 ng/mL stimulated, n=4, read-out: relative IC50, inhibition of pSTAT5): 6.03
